Legend:
[1] = test system: barnyardgrass (Echinochloa crus-gall); experiment: Test Example 2, vegetable field: herbicidal activity; format: in vivo, Echinochloa crus-galli; settings: granules to soil surface the day after seeding, grown 29 days
Source text: (§1) Plastic pots each having a diameter of 18 cm and depth of 14 cm were filled with upland soil, and then seeded with barnyardgrass (Echinochloa crus-gall) and onion (Allium cepa).

[2] = test system: giant foxtail (Setaria faberi); experiment: Test Example 5, vegetable field: herbicidal activity; format: in vivo; settings: granules to soil surface the day after seeding, 17 days in greenhouse
Source text: (§2) Plastic pots each having a diameter of 18 cm and depth of 14 cm were filled with upland soil, seedlings of strawberry (Fragaria ananassa) was transplanted and then seeded with giant foxtail (Setaria faberi).

[3] = test system: strawberry (Fragaria ananassa); experiment: Test Example 5, vegetable field: phytotoxicity; format: in vivo; settings: 40 g/ha active ingredient; transplanted seedlings; granules to soil surface the next day; 17 days in greenhouse
Source text: as §2

[4] = test system: sicklepod (Cassia obtusifolia); experiment: Test Example 1, peanut field: herbicidal activity; format: in vivo; settings: sprayed over plants grown 12 days, examined 7 days after application
Protocol: (§3) Plastic pots each having a diameter of 18 cm and depth of 14 cm were filled with upland soil, and then seeded with yellow nutsedge (Cyperus esculentus), hemp sesbania (Seshania exaltata) and sicklepod (Cassia obtusifolia). In a greenhouse, they were grown for 12 days. Flumioxazin water dispersible granules (commercial name: Valor SX, produced by Valent U.S.A.), Imazosulfuron emulsifiable concentrate (produced by mixing well 5 parts of Imazosulfuron, 65 parts of cyclohexanone, 13 parts of Sorpol 2680 (Toho Chemical's product) and 17 parts of dimethylformamide) and a mixture of the Flumioxazin water dispersible granules and the Imazosulfuron emulsifiable concentrate were independently diluted in their designated amounts with water. Each dilution was uniformly sprayed over the test plants with a small sprayer. […] Further, the pots were seeded with peanut (Arachis hypogea) 7 days after the application, and the phytotoxicity against the crop was examined 10 days after the seeding.

[5] = test system: hemp sesbania (Seshania exaltata); experiment: Test Example 1, peanut field: herbicidal activity; format: in vivo; settings: sprayed over plants grown 12 days, examined 7 days after application
Protocol: as §3

[6] = test system: yellow nutsedge (Cyperus esculentus); experiment: Test Example 1, peanut field: herbicidal activity; format: in vivo; settings: sprayed over plants grown 12 days, examined 7 days after application
Protocol: as §3

[7] = test system: peanut (Arachis hypogea); experiment: Test Example 1, peanut field: phytotoxicity against crop; format: in vivo; settings: peanut seeded 7 days after application, examined 10 days after seeding
Protocol: as §3

[8] = test system: kudzu (Pueraria lobata); experiment: Test Example 12, non-cultivated land: herbicidal activity; format: in vivo; settings: sprayed to soil surface the day after seeding, 14 days in greenhouse
Source text: Plastic pots each having a diameter of 9 cm and depth of 7 cm were filled with upland soil, and then seeded with kudzu (Pueraria lobata).

[9] = test system: onion (Allium cepa); experiment: Test Example 2, vegetable field: phytotoxicity; format: in vivo; settings: 20 g/ha active ingredient; granules to soil surface the day after seeding; grown 29 days
Source text: as §1

| Compound | Herbicidal activity Barnyardgrass ([1]; 20 g/ha active ingredient) | Herbicidal activity giant foxtail ([2]; 40 g/ha active ingredient) | Phtotoxicity strawberry [3] | Herbicidal activity Co ([4]; 30 g/ha active ingredient) | Herbicidal activity Co ([4]; 60 g/ha active ingredient) | Herbicidal activity Se ([5]; 30 g/ha active ingredient) | Herbicidal activity Se ([5]; 60 g/ha active ingredient) | Herbicidal activity Ce ([6]; 30 g/ha active ingredient) | Herbicidal activity Ce ([6]; 60 g/ha active ingredient) | Phytotoxicity against crop Peanut ([7]; 30 g/ha active ingredient) | Phytotoxicity against crop Peanut ([7]; 60 g/ha active ingredient) | Herbicidal activity kudzu ([8]; 100 g/ha active ingredient) | Phtotoxicity Onion [9] | Herbicidal activity Barnyardgrass ([1]; 50 g/ha active ingredient) | Herbicidal activity giant foxtail ([2]; 50 g/ha active ingredient) | Herbicidal activity giant foxtail ([2]; 250 g/ha active ingredient) | Herbicidal activity Co ([4]; 120 g/ha active ingredient) | Herbicidal activity Se ([5]; 120 g/ha active ingredient) | Herbicidal activity Ce ([6]; 120 g/ha active ingredient) | Herbicidal activity kudzu ([8]; 500 g/ha active ingredient) |
| --- | --- | --- | --- | --- | --- | --- | --- | --- | --- | --- | --- | --- | --- | --- | --- | --- | --- | --- | --- | --- |
| C#CCN1C(=O)COc2cc(F)c(N3C(=O)C4=C(CCCC4)C3=O)cc21 [Flumioxazin, N-(7-fluoro-3,4-dihydro-3-oxo-4-prop-2-ynyl-2H-1,4-benzoxadin-6-yl)cyclohex-1-ene-1,2-dicarboxamide] | 1 | 2 | No damage | 0 | 1 | 1 | 1 | 0 | 0 | No damage | No damage | 1 | No damage |  |  |  |  |  |  |  |
| COc1cc(OC)nc(NC(=O)NS(=O)(=O)c2c(Cl)nc3ccccn23)n1 [Imazosulfuron, 1-(2-chloroimidazo[1,2-a]pyridin-3-ylsulfonyl)-3-(4,6-dimethoxypyrimidin-2-yl)urea] |  |  |  |  | 1 |  | 2 |  | 2 |  |  | 1 |  | 0 | 0 | 1 | 1 | 3 | 2 | 2 |
